Experimental data from patent US6750381B2, “Pathogen-resistant plants transformed with a DNA encoding sarcotoxin 1A linked to a signal peptide and a method for production thereof” (National Institute of Agrobiological Sciences, priority 1996, dated 2004).

Columns and labels:
Experiment in all cases: Anti-fungal activity of Sarcotoxin 1a in vitro (hyphal area on agar plate)
Type in all cases: cell-based
[1] = tested on: Fusarium oxysporum F-3; conditions: 5-fold diluted PDA medium, 22° C. in the dark; FIG. 12
Protocol: (§1) Sarcotoxin 1a was measured for an anti-fungal activity against Fusarium oxysporum F-3, Rhizoctonia solani, and Rhizoctonia solani AG-4 1272.
(§2) It has not been known if Sarcotoxin 1a has an anti-fungal activity and how to measure the activity. Therefore, a pre-culture medium and a test medium were variously studied. The pre-culture medium, in which a lawn may be uniformly enlarged within a short period of time, was selected. The test medium, which controls the extension of hyphae as much as possible and allows easy confirmation, was selected.
(§3) (i) Czapek's modified medium (10 g of sucrose, 0.5 g of MgSO4.7H2O, 2.0 g of NaNO3, 0.01 g of Fe2(SO4)3, 1.0 g of K2HPO4, 0.5 g of KCl, 15 g of agarose per liter, pH 6.8 to 7.0; used for Rhizoctonia solani AG-4 1272), (ii) 5-fold diluted PDA medium (7.8 g of Bacto (Trademark) Poteto Dextrose Agar, 12 g of agarose per liter; used for Fusarium oxysporum F-3), (iii) Na2HPO4—NaH2PO4 buffer (15 g/l agarose, pH 5.8; used for Rhizoctonia solani).
(§4) The media for detection were autoclaved. When the media was cooled to 50° C., Sarcotoxin 1a (synthesized by a peptide synthesis and purified to 99% or more by HPLC) was added to each medium. Each of the resulting media was dispensed into a 12-well microplate at 400 μl per well and solidified.
(§5) Fusarium oxysporum F-3, Rhizoctonia solani, and Rhizoctonia solani AG-4 1272 were respectively pre-cultured in a PDA media (39 g/l Bacto (Trademark) Poteto Dextrose Agar) at 22° C. for 2 days.
(§6) An outermost lawn of each hypha spreading over almost the entire surface of the PDA medium of a 9 cm-petri dish was punched with a cork borer with a diameter of 4 mm, and each fungi was placed in the center of a well of a test plate in such a manner that the surface of the layer faced down. Each test plate for detection was kept at 22° C. in the dark.
(§7) Each test plate inoculated with the above-mentioned pathogenic fungi was measured for the size of each hypha growing under transmitted light at established periods, and the area of each hypha and a standard deviation were calculated (see FIGS. 12, 13, and 14). […]

[2] = tested on: Rhizoctonia solani; conditions: Na2HPO4-NaH2PO4 buffer agarose pH 5.8, 22° C. in the dark; FIG. 14
Protocol: as §1, §2, §3, §4, §5, §6, §7

[3] = tested on: Rhizoctonia solani AG-4 1272; conditions: Czapek's modified medium, 22° C. in the dark; FIG. 13
Protocol: as §1, §2, §3, §4, §5, §6, §7

Measured: anti-fungal properties (area of each hypha)

Sarcotoxin 1a (GWLKKIGKKIERVGQHTRDATIQGLGIAQQAANVAATAR) [anti-bacterial peptide derived from Boettherisca peregrina (Diptera insect); synthesized by a peptide synthesis and purified to 99% or more by HPLC]
concentration-dependent manner: all assays above
